Results on 28 compounds are retold here after patent publication US20240238424A1, “HETEROBIFUNCTIONAL COMPOUNDS AND METHODS OF TREATING DISEASE” (Halda Therapeutics OpCo, Inc., priority 2021, published 2024).

Usually DC50 stands for the concentration at which degradation of the target reaches its halfway point. Read a high DC50 as a less potent degrader.

In the first assay the target is T1, GSPT1 (Homo sapiens, UniProt P15170+Q96SW2).
T1 construct: host or cells: HEK293 LgBiT cell line
T1 sequence (P15170 whole entry): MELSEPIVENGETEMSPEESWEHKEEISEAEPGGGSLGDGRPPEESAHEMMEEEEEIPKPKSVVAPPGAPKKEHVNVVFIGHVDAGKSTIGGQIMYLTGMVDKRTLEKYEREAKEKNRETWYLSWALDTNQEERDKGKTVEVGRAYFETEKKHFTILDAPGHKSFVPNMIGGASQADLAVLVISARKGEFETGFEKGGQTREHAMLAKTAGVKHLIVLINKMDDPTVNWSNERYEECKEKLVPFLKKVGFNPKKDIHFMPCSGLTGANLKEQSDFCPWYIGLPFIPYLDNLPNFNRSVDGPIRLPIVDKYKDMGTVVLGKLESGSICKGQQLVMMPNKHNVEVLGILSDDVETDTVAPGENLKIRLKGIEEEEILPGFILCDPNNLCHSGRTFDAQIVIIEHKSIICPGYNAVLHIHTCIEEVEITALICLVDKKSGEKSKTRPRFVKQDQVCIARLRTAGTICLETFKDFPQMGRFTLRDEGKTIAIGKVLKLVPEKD
T1 sequence (Q96SW2 whole entry): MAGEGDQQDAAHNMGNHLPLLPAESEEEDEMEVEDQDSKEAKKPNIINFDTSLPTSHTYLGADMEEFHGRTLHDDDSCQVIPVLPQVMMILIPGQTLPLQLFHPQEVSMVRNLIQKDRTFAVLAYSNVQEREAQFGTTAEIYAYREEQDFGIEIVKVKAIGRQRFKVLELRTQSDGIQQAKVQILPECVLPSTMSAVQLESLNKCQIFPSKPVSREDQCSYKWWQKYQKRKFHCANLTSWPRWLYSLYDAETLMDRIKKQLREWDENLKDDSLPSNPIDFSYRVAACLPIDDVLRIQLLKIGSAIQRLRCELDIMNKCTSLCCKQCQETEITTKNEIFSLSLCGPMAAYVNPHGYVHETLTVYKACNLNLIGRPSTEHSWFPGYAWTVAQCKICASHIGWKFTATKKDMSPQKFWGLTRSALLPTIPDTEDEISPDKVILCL
T1 sequence (Q16531 whole entry partner): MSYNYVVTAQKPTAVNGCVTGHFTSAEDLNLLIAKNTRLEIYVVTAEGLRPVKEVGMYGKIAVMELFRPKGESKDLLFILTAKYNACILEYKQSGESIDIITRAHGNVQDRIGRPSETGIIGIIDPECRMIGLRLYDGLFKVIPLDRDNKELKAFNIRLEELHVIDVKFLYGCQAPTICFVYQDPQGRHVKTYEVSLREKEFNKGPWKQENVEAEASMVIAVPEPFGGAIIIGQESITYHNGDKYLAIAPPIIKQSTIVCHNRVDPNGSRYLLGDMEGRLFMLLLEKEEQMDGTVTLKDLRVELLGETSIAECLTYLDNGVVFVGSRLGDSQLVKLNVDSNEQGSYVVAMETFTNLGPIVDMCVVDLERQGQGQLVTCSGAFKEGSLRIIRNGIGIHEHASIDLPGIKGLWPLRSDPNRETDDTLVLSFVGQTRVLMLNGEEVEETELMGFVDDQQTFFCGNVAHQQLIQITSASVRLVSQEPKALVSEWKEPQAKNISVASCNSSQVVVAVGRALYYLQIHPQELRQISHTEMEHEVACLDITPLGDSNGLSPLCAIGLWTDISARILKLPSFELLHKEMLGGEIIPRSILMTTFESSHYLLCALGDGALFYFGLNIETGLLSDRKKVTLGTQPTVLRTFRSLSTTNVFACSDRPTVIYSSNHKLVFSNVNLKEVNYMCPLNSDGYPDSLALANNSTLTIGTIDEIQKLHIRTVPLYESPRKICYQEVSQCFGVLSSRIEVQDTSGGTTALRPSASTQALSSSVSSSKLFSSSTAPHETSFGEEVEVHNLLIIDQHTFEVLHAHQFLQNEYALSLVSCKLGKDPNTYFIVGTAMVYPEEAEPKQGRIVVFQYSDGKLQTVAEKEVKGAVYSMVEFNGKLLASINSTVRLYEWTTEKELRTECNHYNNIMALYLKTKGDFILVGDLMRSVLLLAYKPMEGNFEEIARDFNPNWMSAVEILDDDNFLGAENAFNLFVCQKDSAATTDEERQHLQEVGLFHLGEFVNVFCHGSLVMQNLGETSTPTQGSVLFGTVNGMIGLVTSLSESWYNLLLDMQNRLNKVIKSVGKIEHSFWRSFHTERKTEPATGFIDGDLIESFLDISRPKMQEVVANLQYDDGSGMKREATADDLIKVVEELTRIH
Put plainly: GSPT1 HiBit degradation assay. Type of assay: cell-based. Particulars: Table 3; HEK293 LgBiT cells expressing GSPT1_HiBiT, luminescence after 6 hours. The source says:
Promega developed a HEK293 cell line that constitutively expresses LgBiT protein and GSPT1_HiBiT fusion protein. When both proteins are present, the HiBiT portion of the fusion protein combines with LgBiT protein to form a functional luciferase enzyme. Endurazine, a cell permeable small molecule, is converted by cellular esterases into furimazine, which the luciferase enzyme uses as a substrate to generate luminescence. When GSPT1 is degraded, the HiBit is also degraded. This prevents formation of fully functional luciferase, leading to a loss in luminescence. GSPT1 degradation therefore correlates with a decrease in luminescence and can be measured continuously over time. The concentration of compound at which 50% GSPT1 degradation occurs (DC50) was calculated using this system.
• HEK293 LgBiT Cell line (Promega Custom) • Endurazine Substrate (Promega Cat. #N2570) • DMEM (Gibco Cat. #11995) • Penicillin/Streptomycin (Gibco Cat. #15140-122) • Heat Inactivated Fetal Bovine Serum (Gibco Cat. #A38400-01) • Hygromycin B (Gibco Cat. #10-687-010) • 384 Well TC Treated White Microplate (Perkin Elmer Cat. #6007680)
HEK293 LgBiT cells were cultured in DMEM Media supplemented with 10% FBS, 5% Pen/Strep, 200 μg/ml hygromycin and stored in an incubator set at 37° C. and 5% CO2. 18-24 hours prior to compound treatment, HEK293 LgBiT cells were seeded at 1000 cells/well in a 384-well microplate in 25 μl complete media. The plate was spun at 300 g for 30 seconds and stored in the incubator overnight. The next day, compounds were titrated in DMSO and added to media supplemented with endurazine substrate. A 25 ul aliquot of 2× compound/endurazine in media were then added to the 384-well microplate with seeded cells. (Endurazine was used at a final concentration of 0.5×). The plate was spun at 300 g for 30 seconds and stored in the incubator. After 6 hours the plate was read on a Perkin Elmer MultiMode Plate Reader Envision 2105 to measure luminescence signal.
Background: The HiBiT peptide binds its large partner to form an active luciferase.
In turn, `Cc1c(CC(=O)N(C)C)ccc(NC(=O)c2nn(C3CCCN(C(=O)/C=C/CN(C)CCOCCOCCOCCOCCOCCOCCCCCCCCc4cc(Cl)cc(NC(=O)NCc5ccc6c(c5)CN(C5CCC(=O)NC5=O)C6=O)c4)C3)c3ncnc(N)c23)c1C` (stereo not shown) [Compound I-65] had a DC50 of under 250 nM.

`Cc1c(CC(=O)N(C)C)ccc(NC(=O)c2nn([C@H]3CCCN(C(=O)/C=C/CN(C)CCOCCOCCOCCOCCCCCCCCc4cc(Cl)cc(NC(=O)NCc5ccc6c(c5)CN(C5CCC(=O)NC5=O)C6=O)c4)C3)c3ncnc(N)c23)c1C` (stereo partly shown) [Compound I-64] registered a DC50 of under 250 nM.

`C=CC(=O)Nc1cc(Nc2nccc(-c3cn(C)c4ccccc34)n2)c(OC)cc1N(C)CCN(C)CCOCCOCCOCCOCCOCCOCCOCCOCCOCCOCCOc1cc(Cl)cc(NC(=O)NCc2ccc3c(c2)CN(C2CCC(=O)NC2=O)C3=O)c1` (stereo not shown) [Compound I-60] registered a DC50 of 5000 to 10000 nM.

Turning to `C=CC(=O)Nc1cc(Nc2nccc(-c3cn(C)c4ccccc34)n2)c(OC)cc1N(C)CCN(C)CCOCCOCCOCCOCCOCCOCCOCCOCCOCCOCCCCCCCCc1cc(Cl)cc(NC(=O)NCc2ccc3c(c2)CN(C2CCC(=O)NC2=O)C3=O)c1` (stereo not shown) [Compound I-63], the DC50 is under 250 nM.

On to `C=CC(=O)Nc1cc(Nc2nccc(-c3cn(C)c4ccccc34)n2)c(OC)cc1N(C)CCN(C)CCOCCOCCOCCOCCOCCOCCOCCOCCOc1cc(Cl)cc(NC(=O)NCc2ccc3c(c2)CN(C2CCC(=O)NC2=O)C3=O)c1` (stereo not shown) [Compound I-57], for which the DC50 is over 10000 nM.

`CCN(CCOCCOCCOCCOCCCCCCCCCCCCCCc1cc(Cl)cc(NC(=O)NCc2ccc3c(c2)CN(C2CCC(=O)NC2=O)C3=O)c1)CCOc1ccc(C(=O)c2c(-c3ccc(O)cc3)sc3cc(O)ccc23)cc1` (stereo not shown) [Compound I-59] yielded a DC50 of 250 to 5000 nM.

`CCN(CCCCCCCCc1cc(Cl)cc(NC(=O)NCc2ccc3c(c2)CN(C2CCC(=O)NC2=O)C3=O)c1)CCOc1ccc(C(=O)c2c(-c3ccc(O)cc3)sc3cc(O)ccc23)cc1` (stereo not shown) [Compound I-58] returned a DC50 of under 250 nM.

As to `CC1(C)[C@H](NC(=O)c2ccc(OCCOCCOCCOCCOCCOCCOCCOCCOCCOCCOCCc3cc(Cl)cc(NC(=O)NCc4ccc5c(c4)CN(C4CCC(=O)NC4=O)C5=O)c3)cc2)C(C)(C)[C@H]1Oc1ccc(C#N)c(Cl)c1` (stereo partly shown) [Compound I-29], the DC50 lay within 250 to 5000 nM.

For the compound `COc1cc(N2CCN(C(=O)COCCOCCOCCOCCOCCOCCOCCOCCc3cc(Cl)cc(NC(=O)NCc4ccc5c(c4)CN(C4CCC(=O)NC4=O)C5=O)c3)CC2)ccc1Nc1ncc(Cl)c(Nc2ccccc2P(C)(C)=O)n1` (stereo not shown) [Compound I-27], the DC50 is 5000 to 10000 nM.

In turn, `COc1cc(N2CCN(C(=O)COCCOCCOCCOCCOCCOCCOCCOCCOCCOCCc3cc(Cl)cc(NC(=O)NCc4ccc5c(c4)CN(C4CCC(=O)NC4=O)C5=O)c3)CC2)ccc1Nc1ncc(Cl)c(Nc2ccccc2P(C)(C)=O)n1` (stereo not shown) [Compound I-45] registered a DC50 of 5000 to 10000 nM.

Still in this assay, the particulars now being: Table 3A; HEK293 LgBiT cells expressing GSPT1_HiBiT, luminescence after 6 hours.
`Cc1c(NC(=O)c2ccc(C3CC3)cc2F)cc(F)cc1-c1ncnc(N)c1OCCN(C)C(=O)/C=C/CN(C)CCOCCOCCOCCOCCOCCOCCCCCCCCc1cc(Cl)cc(NC(=O)NCc2ccc3c(c2)CN(C2CCC(=O)NC2=O)C3=O)c1` (stereo not shown) [Compound I-97] showed a DC50 of under 250 nM.

For `CCC(=O)N1CCN(c2nc(OC[C@@H]3CCCN3CCOCCOCCOCCOCCOCCOCCOCCOCCOCCOCCOCCOCCOCCOCCCCCCCCc3cc(Cl)cc(NC(=O)NCc4ccc5c(c4)CN(C4CCC(=O)NC4=O)C5=O)c3)nc3c2CCN(c2cccc4cccc(Cl)c24)C3)CC1CC#N` (stereo partly shown) [Compound I-103], the DC50 fell in the range of 250 to 5000 nM.

In turn, `COc1cc(N2CCN(C(=O)COCCOCCOCCOCCOCCCCCc3cc(Cl)cc(NC(=O)NCc4ccc5c(c4)CN(C4CCC(=O)NC4=O)C5=O)c3)CC2)ccc1Nc1ncc(Cl)c(Nc2ccccc2P(C)(C)=O)n1` (stereo not shown) [Compound I-119] showed a DC50 of 250 to 5000 nM.

In turn, `COc1cc(N2CCN(C(=O)COCCOCCOCCCCCc3cc(Cl)cc(NC(=O)NCc4ccc5c(c4)CN(C4CCC(=O)NC4=O)C5=O)c3)CC2)ccc1Nc1ncc(Cl)c(Nc2ccccc2P(C)(C)=O)n1` (stereo not shown) [Compound I-121] yielded a DC50 of under 250 nM.

In turn, `CN(C/C=C/C(=O)N1CCC[C@@H](n2nc(-c3ccc(Oc4ccccc4)cc3)c3c(N)ncnc32)C1)CCOCCOCCOCCCCCc1cc(Cl)cc(NC(=O)NCc2ccc3c(c2)CN(C2CCC(=O)NC2=O)C3=O)c1` (stereo partly shown) [Compound I-110] came in with a DC50 of 250 to 5000 nM.

Take `CN(C/C=C/C(=O)N1CCC[C@@H](n2nc(-c3ccc(Oc4ccccc4)cc3)c3c(N)ncnc32)C1)CCOCCOCCOCCOCCOCCOCCOCCOCCOCCOCCCCCCCCc1cc(Cl)cc(NC(=O)NCc2ccc3c(c2)CN(C2CCC(=O)NC2=O)C3=O)c1` (stereo partly shown) [Compound I-83]: the DC50 fell in the range of 250 to 5000 nM.

The compound `CN(C/C=C/C(=O)N1CCN(c2nc(OC[C@@H]3CCCN3C)nc3c2CCN(c2cccc4cccc(Cl)c24)C3)C[C@@H]1CC#N)CCOCCOCCOCCOCCOCCOCCOCCOCCOCCCCCc1cc(Cl)cc(NC(=O)NCc2ccc3c(c2)CN(C2CCC(=O)NC2=O)C3=O)c1` (stereo partly shown) [Compound I-162] gave a DC50 of 250 to 5000 nM.

In the case of `COc1cc(N2CCN(C(=O)COCCOCCOCCOCCOCCOCCOCCOCCOCCOCCOc3cc(Cl)cc(NC(=O)NCc4ccc5c(c4)CN(C4CCC(=O)NC4=O)C5=O)c3)CC2)ccc1Nc1ncc(Cl)c(Nc2ccccc2P(C)(C)=O)n1` (stereo not shown) [Compound I-24, 1-[3-chloro-5-[2-[2-[2-[2-[2-[2-[2-[2-[2-[2-[2-[4-[4-[[5-chloro-4-(2-dimethylphosphorylanilino)pyrimidin-2-yl]amino]-3-methoxy-phenyl]piperazin-1-yl]-2-oxo-ethoxy]ethoxy]ethoxy]ethoxy]ethoxy]ethoxy]ethoxy]ethoxy]ethoxy]ethoxy]ethoxy]phenyl]-3-[[2-(2,6-dioxo-3-piperidyl)-1-oxo-isoindolin-5-yl]methyl]urea], the DC50 is over 10000 nM.

As to `CN(CCOCCOCCOCCOCCOCCOCCOCCOCCOCCCCCc1cc(Cl)cc(NC(=O)NCc2ccc3c(c2)CN(C2CCC(=O)NC2=O)C3=O)c1)C(=O)CO[C@H]1CC[C@H]2[C@@H]3CC[C@H]4CC(=O)CC[C@]4(C)[C@H]3CC[C@]12C` (stereo partly shown) [Compound I-135], the DC50 is 250 to 5000 nM.

`C=C(F)C(=O)N1CCN(c2nc(OC[C@@H]3CCCN3CCCOCCOCCOCCOCCOCCOCCOCCOCCOCCCCCc3cccc(NC(=O)NCc4ccc5c(c4)CN(C4CCC(=O)NC4=O)C5=O)n3)nc3c2CCN(c2cccc4cccc(Cl)c24)C3)C[C@@H]1CC#N` (stereo partly shown) [Compound I-156] displayed a DC50 of 250 to 5000 nM.

In turn, `CN(C/C=C/C(=O)N1CCN(c2nc(OC[C@H]3CCCN3C)nc3c2CCN(c2cccc4cccc(Cl)c24)C3)C[C@@H]1CC#N)CCOCCOCCOCCOCCOCCOCCOCCOCCCCCCCCc1cc(Cl)cc(NC(=O)NCc2ccc3c(c2)CN(C2CCC(=O)NC2=O)C3=O)c1` (stereo partly shown) [Compound I-86] came in with a DC50 of 250 to 5000 nM.

`CN(C/C=C/C(=O)N1CCN(c2nc(OC[C@@H]3CCCN3C)nc3c2CCN(c2cccc4cccc(Cl)c24)C3)C[C@@H]1CC#N)CCOCCOCCOCCOCCCCCCCCc1cc(Cl)cc(NC(=O)NCc2ccc3c(c2)CN(C2CCC(=O)NC2=O)C3=O)c1` (stereo partly shown) [Compound I-81] showed a DC50 of under 250 nM.

Turning to `CN(C/C=C/C(=O)N1CCC[C@@H](n2nc(-c3ccc(Oc4ccccc4)cc3)c3c(N)ncnc32)C1)CCOCCOCCOCCOCCOCCCCCc1cc(Cl)cc(NC(=O)NCc2ccc3c(c2)CN(C2CCC(=O)NC2=O)C3=O)c1` (stereo partly shown) [Compound I-104], the DC50 lay within 250 to 5000 nM.

Compound `Nc1ncnc2c1c(-c1ccc(Oc3ccccc3)cc1)nn2[C@@H]1CCCN(C(=O)/C=C/COCCOCCOCCOCCOCCCCCCCCc2cc(Cl)cc(NC(=O)NCc3ccc4c(c3)CN(C3CCC(=O)NC3=O)C4=O)c2)C1` (stereo partly shown) [Compound I-82] registered a DC50 of under 250 nM.

For `C=CC(=O)N1CCN(c2nc(=O)n(-c3c(C)cc(OCCOCCOCCOCCOCCOCCOCCOCCCCCc4cc(Cl)cc(NC(=O)NCc5ccc6c(c5)CN(C5CCC(=O)NC5=O)C6=O)c4)nc3C(C)C)c3nc(-c4c(O)cccc4F)c(F)cc23)[C@@H](C)C1` (stereo partly shown) [Compound I-153], the DC50 lay in the range of 250 to 5000 nM.

`Cc1c(NC(=O)c2ccc(C3CC3)cc2F)cc(F)cc1-c1ncnc(N)c1OCCN(C)C(=O)/C=C/CN(C)CCOCCOCCOCCOCCOCCCCCc1cc(Cl)cc(NC(=O)NCc2ccc3c(c2)CN(C2CCC(=O)NC2=O)C3=O)c1` (stereo not shown) [Compound I-105] displayed a DC50 of under 250 nM.

Consider `Nc1ncnc2c1c(-c1ccc(Oc3ccccc3)cc1)nn2[C@@H]1CCCN(C(=O)/C=C/COCCOCCOCCOCCOCCOCCOCCCCCCCCc2cc(Cl)cc(NC(=O)NCc3ccc4c(c3)CN(C3CCC(=O)NC3=O)C4=O)c2)C1` (stereo partly shown) [Compound I-85], for which the DC50 is under 250 nM.

`C=C(F)C(=O)N1CCN(c2nc(OC[C@@H]3C[C@@H](OCC(=O)N(C)CCOCCOCCOCCOCCOCCOCCOCCCCCc4cc(Cl)cc(NC(=O)NCc5ccc6c(c5)CN(C5CCC(=O)NC5=O)C6=O)c4)CN3C)nc3c2CCN(c2cccc4cccc(Cl)c24)C3)C[C@@H]1CC#N` (stereo partly shown) [Compound I-136] registered a DC50 of 250 to 5000 nM.
